These results are taken from ChEMBL document CHEMBL1201862, “PubChem BioAssay data set” (2004).

Each structure is given as a SMILES string. The source made the active and inactive calls. Bounds are passed on as bounds.

Experiment [1] addresses T1, Leucine aminopeptidase (Plasmodium falciparum 3D7, UniProt Q8IL11).
T1 sequence (Q8IL11 whole entry): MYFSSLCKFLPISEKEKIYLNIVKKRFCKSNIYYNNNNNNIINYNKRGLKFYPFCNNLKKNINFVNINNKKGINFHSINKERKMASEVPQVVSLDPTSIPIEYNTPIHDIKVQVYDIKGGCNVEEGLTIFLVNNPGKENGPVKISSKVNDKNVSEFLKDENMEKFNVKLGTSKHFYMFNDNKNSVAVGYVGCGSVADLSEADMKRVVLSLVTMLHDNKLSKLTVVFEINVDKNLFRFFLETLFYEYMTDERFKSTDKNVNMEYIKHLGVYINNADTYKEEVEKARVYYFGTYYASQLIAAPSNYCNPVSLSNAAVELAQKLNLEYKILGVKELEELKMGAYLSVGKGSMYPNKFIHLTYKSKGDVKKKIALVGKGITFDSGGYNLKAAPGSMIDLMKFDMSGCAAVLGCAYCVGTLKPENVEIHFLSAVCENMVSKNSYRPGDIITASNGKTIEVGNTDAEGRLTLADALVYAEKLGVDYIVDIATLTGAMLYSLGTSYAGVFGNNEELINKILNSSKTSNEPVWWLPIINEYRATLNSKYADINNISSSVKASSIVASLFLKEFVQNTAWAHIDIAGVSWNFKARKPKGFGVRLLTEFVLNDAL
In words: P. falciparum M17LAP inhibitors, primary screen, biochemical, fluorogenic H-Leu-NHMec substrate, 1536-well (AID 1619). Format: functional.

For experiment [2], the system named is H9c2. In words: cells. It is filed as functional, cell-based. To be noted: Rattus norvegicus, H9c2, Myocardium.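 Further: confirmatory concentration-response retest of ultra-high-throughput screening hits for modulation of myocardial damage; cell death induced by hydrogen peroxide oxidative stress; compound pretreatment for 60 min then peroxide exposure for 2 h; potency is for protecting the cells against peroxide damage rather than for killing them.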
The target of experiment [3] is T2, DNA repair and recombination protein RAD54-like (Homo sapiens, UniProt Q92698).
T2 sequence (Q92698 whole entry): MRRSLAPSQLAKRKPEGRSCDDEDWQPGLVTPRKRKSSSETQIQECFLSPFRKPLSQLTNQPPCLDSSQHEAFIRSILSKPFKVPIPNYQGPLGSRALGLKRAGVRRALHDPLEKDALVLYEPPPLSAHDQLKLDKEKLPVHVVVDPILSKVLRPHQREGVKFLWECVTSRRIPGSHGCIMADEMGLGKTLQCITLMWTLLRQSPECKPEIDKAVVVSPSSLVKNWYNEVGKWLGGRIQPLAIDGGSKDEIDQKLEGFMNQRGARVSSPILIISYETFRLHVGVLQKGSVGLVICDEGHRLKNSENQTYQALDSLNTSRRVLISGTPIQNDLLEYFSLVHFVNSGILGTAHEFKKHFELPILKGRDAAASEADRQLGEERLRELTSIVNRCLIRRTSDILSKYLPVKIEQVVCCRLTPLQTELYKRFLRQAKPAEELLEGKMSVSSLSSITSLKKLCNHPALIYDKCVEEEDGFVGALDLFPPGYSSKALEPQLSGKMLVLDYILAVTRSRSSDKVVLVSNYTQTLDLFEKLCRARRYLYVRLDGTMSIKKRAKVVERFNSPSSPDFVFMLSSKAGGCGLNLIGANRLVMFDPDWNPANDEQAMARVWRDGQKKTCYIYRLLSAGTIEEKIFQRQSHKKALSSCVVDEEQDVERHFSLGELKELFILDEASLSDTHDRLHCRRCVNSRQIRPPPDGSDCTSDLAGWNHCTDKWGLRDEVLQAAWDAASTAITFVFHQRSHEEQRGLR
In words: inhibitors of human RAD54 branch migration, confirmation, biochemical, fluorescence, cherry-picked samples, dose series (AID 651657). Format: functional.

Experiment [4] can be described thus: inhibitors of Vif binding to APOBEC3G peptide, primary screen, biochemical, TR-FRET, GST-Vif 1-94, biotin-A3G peptide, dose response retest (AID 1117319).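 Further: inhibitors lower the FRET signal by blocking Vif and A3G binding.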 Format: functional. For orientation: In TR-FRET formats the signal depends on donor and acceptor labels being close together.
In experiment [5] the target is T3, Fatty acid synthase (Homo sapiens, UniProt P49327). In words: FAS thioesterase domain inhibitors, dose response, biochemical, endpoint fluorescence intensity, uHTS hits (AID 624327).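 Further: fluorescence from hydrolysis of an O-methyl fluorescein acyl ester substrate by the enzyme.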 It is filed as functional.
The target of experiment [6] is T3, Fatty acid synthase. In words: FAS thioesterase domain inhibitors, dose response, biochemical, kinetic fluorescence intensity (AID 624326).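 Further: rate of fluorescence rise from hydrolysis of a fluorogenic O-methyl fluorescein ester substrate.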 It is filed as functional.
The target in experiment [7] is T4, Apoptotic protease-activating factor 1 (Homo sapiens, UniProt O14727).
T4 sequence (O14727 whole entry): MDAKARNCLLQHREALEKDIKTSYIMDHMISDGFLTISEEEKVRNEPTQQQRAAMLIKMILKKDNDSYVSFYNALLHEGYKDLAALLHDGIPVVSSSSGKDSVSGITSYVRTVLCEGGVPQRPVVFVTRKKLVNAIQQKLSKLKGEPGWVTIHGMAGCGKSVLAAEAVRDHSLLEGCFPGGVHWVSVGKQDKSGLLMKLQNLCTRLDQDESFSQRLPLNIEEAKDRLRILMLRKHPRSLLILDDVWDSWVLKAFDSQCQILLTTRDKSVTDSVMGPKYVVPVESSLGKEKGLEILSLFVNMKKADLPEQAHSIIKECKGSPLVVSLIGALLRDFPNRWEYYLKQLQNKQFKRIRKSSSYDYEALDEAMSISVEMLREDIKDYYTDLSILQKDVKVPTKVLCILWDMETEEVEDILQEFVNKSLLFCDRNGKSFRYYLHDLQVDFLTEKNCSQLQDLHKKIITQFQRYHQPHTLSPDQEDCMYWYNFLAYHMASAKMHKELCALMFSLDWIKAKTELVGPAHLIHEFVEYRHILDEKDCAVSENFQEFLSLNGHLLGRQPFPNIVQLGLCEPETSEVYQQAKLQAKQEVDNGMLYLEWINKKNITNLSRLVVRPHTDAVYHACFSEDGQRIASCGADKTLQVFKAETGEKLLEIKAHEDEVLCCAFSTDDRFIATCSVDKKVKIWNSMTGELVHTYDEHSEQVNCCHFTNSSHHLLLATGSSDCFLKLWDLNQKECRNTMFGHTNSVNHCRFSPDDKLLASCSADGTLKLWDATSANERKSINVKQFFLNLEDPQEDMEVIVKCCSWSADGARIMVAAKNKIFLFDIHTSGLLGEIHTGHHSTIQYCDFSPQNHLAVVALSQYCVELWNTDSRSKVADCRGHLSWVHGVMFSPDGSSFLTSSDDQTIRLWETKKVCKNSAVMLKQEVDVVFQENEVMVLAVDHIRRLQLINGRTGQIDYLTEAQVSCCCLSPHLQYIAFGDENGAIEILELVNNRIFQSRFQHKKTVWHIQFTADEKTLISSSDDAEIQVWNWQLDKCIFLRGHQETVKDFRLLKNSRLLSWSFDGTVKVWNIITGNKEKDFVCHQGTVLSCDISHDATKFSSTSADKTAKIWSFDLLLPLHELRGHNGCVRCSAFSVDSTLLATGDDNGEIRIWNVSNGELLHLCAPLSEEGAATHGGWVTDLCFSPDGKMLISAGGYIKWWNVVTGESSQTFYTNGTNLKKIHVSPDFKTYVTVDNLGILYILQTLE
It is filed as functional.

Experiment [8] addresses T5, DNA repair protein RAD52 homolog (Homo sapiens, UniProt P43351).
T5 sequence (P43351 whole entry): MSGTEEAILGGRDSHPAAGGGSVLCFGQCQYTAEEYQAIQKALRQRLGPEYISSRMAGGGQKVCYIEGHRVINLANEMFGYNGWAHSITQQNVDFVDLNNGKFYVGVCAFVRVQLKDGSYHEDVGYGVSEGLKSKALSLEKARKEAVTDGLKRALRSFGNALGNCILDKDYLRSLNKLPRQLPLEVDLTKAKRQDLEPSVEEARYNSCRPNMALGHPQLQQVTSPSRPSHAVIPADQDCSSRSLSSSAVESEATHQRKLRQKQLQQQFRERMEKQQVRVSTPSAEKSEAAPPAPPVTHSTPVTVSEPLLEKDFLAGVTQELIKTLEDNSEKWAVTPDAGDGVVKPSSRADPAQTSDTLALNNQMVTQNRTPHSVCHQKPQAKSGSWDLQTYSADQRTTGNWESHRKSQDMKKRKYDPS
Format: functional, biochemical.

Experiment [9] addresses Heat shock protein HSP 90-alpha (Homo sapiens, UniProt P07900). It is filed as functional, organism-based.
In experiment [10] the target is 26S proteasome non-ATPase regulatory subunit 14 (Homo sapiens, UniProt O00487). In words: inhibition of proteasome subunit RPN11 – biochemical, fluorescence polarization, uHTS hits, confirmation (AID 602368). It is filed as functional.
The target of experiment [11] is 72 kDa type IV collagenase (Homo sapiens, UniProt P08253). In words: Dose Response validation of uHTS RPN11 inhibitor hits using a MMP-2 Fluorescence assay. Format: functional.
Experiment [12] deals with Prothrombin (Bos taurus, UniProt P00735). In words: thrombin inhibition, dose response, biochemical, fluorescence polarization, uHTS hits (AID 602369). Format: functional. On the technique in general: Polarisation of emitted light reports the rotation of a fluorescent probe.
Experiment [13] deals with Paired box protein Pax-8 (Homo sapiens, UniProt Q06710). In words: inhibitors of PAX8-driven TPO luciferase reporter, dose response, RMG-I cells, cherry-pick (AID 687027).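 Further: luciferase reporter driven by Pax8 target thyroperoxidase promoter measured by SteadyGlo luminescence.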 Format: functional, cell-based. In general terms: In a reporter assay the amount or activity of a reporter protein is the signal.
Experiment [14] in a line: PAX2 cell-based inhibition, dose response, selectivity assay for PAX8 inhibitor project, plate reader, dry powder samples (AID 743048).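 Further: HEK293 cells carrying a WT1 promoter luciferase reporter driven by expressed Pax2; potency is for inhibition of Pax2 driven reporter signal.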 It is filed as functional.
Experiment [15] is described as follows: cytotoxicity in OVCAR8 ovarian cancer cells, dose response, PAX8 project, cell-based, plate reader, dry powder samples (AID 743197). Format: functional. The conditions noted are these: OVCAR-8.
Experiment [16] in a line: cytotoxicity dependent on PAX8, dose response, cell-based, plate reader, dry powder (AID 743049). It is filed as functional.

T3 sequence (P49327 whole entry, the tested form may be a part): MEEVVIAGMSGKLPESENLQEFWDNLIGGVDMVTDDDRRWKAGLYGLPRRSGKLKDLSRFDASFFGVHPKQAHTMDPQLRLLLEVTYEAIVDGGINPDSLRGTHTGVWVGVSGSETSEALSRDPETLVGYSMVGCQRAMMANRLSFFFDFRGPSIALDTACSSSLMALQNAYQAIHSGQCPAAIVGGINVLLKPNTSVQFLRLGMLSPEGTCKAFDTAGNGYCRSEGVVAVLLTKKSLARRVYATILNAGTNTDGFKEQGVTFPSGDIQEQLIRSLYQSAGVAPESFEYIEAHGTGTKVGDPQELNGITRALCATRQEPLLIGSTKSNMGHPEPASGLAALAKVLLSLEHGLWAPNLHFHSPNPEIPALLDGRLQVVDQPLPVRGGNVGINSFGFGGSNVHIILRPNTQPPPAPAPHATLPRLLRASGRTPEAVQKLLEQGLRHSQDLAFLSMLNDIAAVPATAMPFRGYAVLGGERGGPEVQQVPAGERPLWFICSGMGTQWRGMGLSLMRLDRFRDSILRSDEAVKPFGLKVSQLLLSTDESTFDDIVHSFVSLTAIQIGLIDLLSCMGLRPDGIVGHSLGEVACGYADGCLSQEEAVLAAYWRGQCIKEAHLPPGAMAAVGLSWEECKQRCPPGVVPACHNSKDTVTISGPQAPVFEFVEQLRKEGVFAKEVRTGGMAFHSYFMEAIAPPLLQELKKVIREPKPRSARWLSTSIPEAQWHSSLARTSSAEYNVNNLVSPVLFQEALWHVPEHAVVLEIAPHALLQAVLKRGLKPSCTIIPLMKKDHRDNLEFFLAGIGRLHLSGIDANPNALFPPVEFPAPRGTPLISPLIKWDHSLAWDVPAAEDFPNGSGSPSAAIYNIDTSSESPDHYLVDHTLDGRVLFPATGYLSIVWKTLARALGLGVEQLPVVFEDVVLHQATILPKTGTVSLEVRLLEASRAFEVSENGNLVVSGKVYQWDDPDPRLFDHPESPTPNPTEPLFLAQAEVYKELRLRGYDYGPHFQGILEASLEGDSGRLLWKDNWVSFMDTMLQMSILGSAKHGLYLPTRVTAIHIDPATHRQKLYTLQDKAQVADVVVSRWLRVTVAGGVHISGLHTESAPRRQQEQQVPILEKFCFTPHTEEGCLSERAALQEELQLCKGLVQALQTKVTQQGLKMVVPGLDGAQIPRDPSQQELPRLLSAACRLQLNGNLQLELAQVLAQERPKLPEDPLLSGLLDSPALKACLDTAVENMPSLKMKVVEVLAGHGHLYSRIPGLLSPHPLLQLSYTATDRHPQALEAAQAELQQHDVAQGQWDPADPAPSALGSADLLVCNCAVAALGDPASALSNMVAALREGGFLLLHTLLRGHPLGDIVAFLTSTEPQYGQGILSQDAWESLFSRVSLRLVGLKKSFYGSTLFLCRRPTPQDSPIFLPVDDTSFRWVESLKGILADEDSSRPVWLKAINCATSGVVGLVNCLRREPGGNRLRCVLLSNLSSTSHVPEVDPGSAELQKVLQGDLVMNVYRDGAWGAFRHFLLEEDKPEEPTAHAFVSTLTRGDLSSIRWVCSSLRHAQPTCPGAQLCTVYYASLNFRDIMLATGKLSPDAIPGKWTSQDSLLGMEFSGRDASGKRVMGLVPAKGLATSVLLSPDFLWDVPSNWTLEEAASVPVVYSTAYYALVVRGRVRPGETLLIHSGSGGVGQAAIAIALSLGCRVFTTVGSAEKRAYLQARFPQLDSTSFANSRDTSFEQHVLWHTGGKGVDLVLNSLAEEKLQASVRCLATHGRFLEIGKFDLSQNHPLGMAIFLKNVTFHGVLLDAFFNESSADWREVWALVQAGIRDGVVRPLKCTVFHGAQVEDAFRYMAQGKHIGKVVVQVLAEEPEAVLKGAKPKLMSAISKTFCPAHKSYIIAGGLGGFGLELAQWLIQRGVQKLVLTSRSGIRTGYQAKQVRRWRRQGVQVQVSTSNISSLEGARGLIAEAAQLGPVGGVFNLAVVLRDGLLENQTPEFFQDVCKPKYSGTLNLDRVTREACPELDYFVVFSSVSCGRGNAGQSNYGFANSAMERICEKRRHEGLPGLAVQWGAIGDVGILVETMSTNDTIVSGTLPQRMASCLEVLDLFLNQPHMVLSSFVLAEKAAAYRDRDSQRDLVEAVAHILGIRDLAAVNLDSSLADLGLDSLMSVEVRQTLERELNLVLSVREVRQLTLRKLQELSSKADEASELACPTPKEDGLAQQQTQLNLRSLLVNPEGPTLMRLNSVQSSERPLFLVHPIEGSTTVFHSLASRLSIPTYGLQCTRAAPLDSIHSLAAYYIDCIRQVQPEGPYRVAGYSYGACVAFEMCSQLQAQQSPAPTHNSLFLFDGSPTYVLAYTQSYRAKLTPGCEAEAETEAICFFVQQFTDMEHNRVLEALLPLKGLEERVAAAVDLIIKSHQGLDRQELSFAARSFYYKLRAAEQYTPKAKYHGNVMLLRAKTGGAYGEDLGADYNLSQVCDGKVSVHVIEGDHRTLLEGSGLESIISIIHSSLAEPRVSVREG
Chain of Paired box protein Pax-8 (Q06710 whole entry): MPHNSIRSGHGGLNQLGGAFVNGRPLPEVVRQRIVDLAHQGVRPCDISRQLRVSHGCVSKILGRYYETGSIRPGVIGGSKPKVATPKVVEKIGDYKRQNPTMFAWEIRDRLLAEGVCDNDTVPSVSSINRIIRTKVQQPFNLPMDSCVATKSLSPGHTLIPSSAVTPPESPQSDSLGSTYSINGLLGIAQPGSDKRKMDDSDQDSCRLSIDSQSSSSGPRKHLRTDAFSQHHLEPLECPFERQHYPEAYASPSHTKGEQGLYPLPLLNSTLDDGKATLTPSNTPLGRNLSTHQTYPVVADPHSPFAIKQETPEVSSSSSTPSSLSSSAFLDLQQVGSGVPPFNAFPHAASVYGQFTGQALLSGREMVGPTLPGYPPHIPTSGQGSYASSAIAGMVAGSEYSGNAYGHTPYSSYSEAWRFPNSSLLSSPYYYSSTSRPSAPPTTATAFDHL
Chain of 26S proteasome non-ATPase regulatory subunit 14 (O00487 whole entry): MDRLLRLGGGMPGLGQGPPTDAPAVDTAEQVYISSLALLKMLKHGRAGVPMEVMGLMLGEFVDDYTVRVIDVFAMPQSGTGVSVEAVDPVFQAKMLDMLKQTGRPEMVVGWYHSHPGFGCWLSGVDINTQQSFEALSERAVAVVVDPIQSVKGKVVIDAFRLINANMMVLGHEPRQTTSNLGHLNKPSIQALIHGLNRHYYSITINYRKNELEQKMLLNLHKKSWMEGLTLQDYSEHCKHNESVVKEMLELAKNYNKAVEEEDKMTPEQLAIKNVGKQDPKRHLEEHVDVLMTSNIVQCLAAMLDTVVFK
Chain of 72 kDa type IV collagenase (P08253 whole entry): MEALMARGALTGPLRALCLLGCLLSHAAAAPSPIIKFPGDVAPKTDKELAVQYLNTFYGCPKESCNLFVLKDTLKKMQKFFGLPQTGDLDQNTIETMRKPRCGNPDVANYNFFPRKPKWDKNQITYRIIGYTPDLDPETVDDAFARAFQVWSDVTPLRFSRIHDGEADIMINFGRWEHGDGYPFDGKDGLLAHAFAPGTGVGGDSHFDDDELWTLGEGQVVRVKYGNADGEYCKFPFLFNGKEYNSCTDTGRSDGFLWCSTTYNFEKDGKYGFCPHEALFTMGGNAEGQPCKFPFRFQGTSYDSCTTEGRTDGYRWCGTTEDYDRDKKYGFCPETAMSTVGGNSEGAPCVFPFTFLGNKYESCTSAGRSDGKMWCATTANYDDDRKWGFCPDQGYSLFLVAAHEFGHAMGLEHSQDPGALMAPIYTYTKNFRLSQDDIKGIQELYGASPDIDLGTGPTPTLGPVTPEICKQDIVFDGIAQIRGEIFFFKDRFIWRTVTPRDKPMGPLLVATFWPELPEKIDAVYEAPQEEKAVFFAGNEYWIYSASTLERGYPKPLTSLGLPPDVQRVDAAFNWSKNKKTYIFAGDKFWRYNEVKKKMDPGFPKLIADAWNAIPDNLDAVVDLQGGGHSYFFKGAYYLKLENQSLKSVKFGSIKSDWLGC

`O=C(CSc1nnc[nH]1)Nc1ccc(Br)cc1F`: the IC50 in experiment [1] is 29.8 µM (active).
`COc1ccc(CCn2c(=N)c(C(=O)NCC3CCCO3)cc3c(=O)n4cccc(C)c4nc32)cc1OC` (stereo not drawn): the IC50 in [2] was > 79 µM (inactive). The AC50 in experiment [3] was 14.4 µM (active).
As to `CC1(C)Oc2ccc(C(=O)NC3CCCC3)cc2N(CC(=O)N2CCOCC2)C1=O`, the IC50 in experiment [4] is > 100 µM (active).
Same read-out and setting: next, `CCc1cc2c(=O)n(-c3ccc(C)cc3)cnc2s1`: > 100 µM (active).
Turning to `O=C(NCCCCc1ccccc1)c1cccc([N+](=O)[O-])c1`, the IC50 in experiment [5] is 11.1 µM (active); in experiment [6] it was 8.43 µM (active).
On to `CCN1C(=O)N(CC)C(=O)C2(Cc3ccccc3N3CCN(c4ccccc4)CC32)C1=O` (stereo not drawn), for which the IC50 in [4] is > 100 µM (active).
On the same count and under the same terms, the figure for `COc1ccc(NCc2nnc(SCC(=O)N3CCCc4ccccc43)o2)cc1` is > 100 µM (active).
On to `CCOC(=O)c1c(CN(C)C)n(C)c2c(O)c(N=NC(N)=O)c3ccc(Br)cc3c12`, for which, in experiment [7], the IC50 is 12.1 µM (active). In addition, the half-maximal activity concentration (AC50) in experiment [8] is 11.6 µM (active).
On to `COc1ccc(NC(=O)CSC2CC(=O)N(c3ccc4c(c3)OCCO4)C2=O)cc1` (stereo not drawn), for which the IC50 in [1] is 16.1 µM (active).
Turning to `Cc1csc(N2CCN(c3cc4c(cc3Cl)nc(-c3ccncc3)n4CCCN3CCCC3)CC2)n1`, the AC50 in experiment [8] is 4.61 µM (active).
Turning to `O=C(NCCCN1CCOCC1)c1cnn2c(-c3ccccc3)cc(-c3ccccc3)nc12`, the AC50 in [3] was 27 µM (active).
As to `NC(=O)c1c(NC(=S)Nc2ccc(F)cc2)sc2c1CCCC2`, the concentration for half-maximal inhibition (IC50) in [1] is 92 µM (active).
Turning to `CC1(C)CCN(Cc2ccccc2)C1CC#N` (stereo not drawn), the half-maximal inhibitory concentration (IC50) in experiment [4] was > 100 µM (active).
For the molecule `CCN(Cc1ccccc1)C(=O)c1cnc2ccc(S(=O)(=O)N(C)CCC#N)cc2c1O`, the IC50 is 12 µM (active) in [5] and 7.6 µM (active) in [6].
Turning to `COC(=O)c1c(NC(=O)C2C3CCC(O3)C2C(=O)O)sc2c1CCCCCC2` (stereo not drawn), the IC50 in [1] is 48.9 µM (active).
On to `CCN(CC)CCCN(C(=O)c1ccc(Br)cc1)c1nc(-c2ccc(OC)cc2)cs1`, for which, in experiment [8], the AC50 was 17.2 µM (active).
As for `Cc1ccc(C(=O)NCC(=O)OCc2nnc(-c3ccc([N+](=O)[O-])cc3)o2)s1`, the IC50 in [5] was 15.1 µM (active); in experiment [6] it was 12.7 µM (active).
`Cc1cc(N=Nc2ccccc2C(=O)O)c(C)c(C)c1O`: the AC50 in experiment [9] was 4.36 µM (active). Moreover, the IC50 was 25.4 µM (active) in [10], 43.4 µM (active) in [11] and 34.2 µM (active) in experiment [12].
Consider `CCc1nc2c(OCc3ccc(Cl)cc3Cl)cccn2c1N(C=O)Cc1ccc(OC)cc1`, for which the IC50 in experiment [5] is 2.45 µM (active); in experiment [6], 1.46 µM (active).
For `CN(C)CCCNc1nc2cc(-c3ccc(C(=O)N4CCN(C)CC4)cc3)sc2c(=O)n1C`, the AC50 in [3] is 47.7 µM (active).
On to `COc1ccc(S(=O)(=O)Nc2ccc3c(c2)CC(=O)N([C@@H](C)CO)C[C@@H](C)[C@@H](CN(C)Cc2ccc(-c4ccccc4)cc2)O3)cc1`, for which the AC50 in experiment [13] is 24.6 µM (active); in experiment [14], 42 µM (active); in experiment [15], > 70 µM (inactive); in experiment [16], 44.2 µM (active).

Broadly, the IC50 is the concentration that gives 50% inhibition. Usually AC50 stands for the concentration at which the activity in the assay is half-maximal.
